# Tests used:
# Test in all cases: relative viability (nuclei count vs DMSO), 5 days (fraction); higher = more cells survive
# [1] = tested on: NCI-H661
# Procedure, shortened: (§1)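 Lung cancer cell lines were pin-tool dosed in 1536-well plates on the day after seeding, with either a lone drug or a fixed anchor-drug dose plus five library-drug doses (not always all listed) in √10 steps. Nuclei were counted on 4× images after 5 days. Relative viability is the ratio of treated-well to vehicle-well nuclei counts, with each value a median of duplicate plates.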
# [2] = tested on: UMC-11
# Procedure, shortened: as §1
# [3] = tested on: CAL-12T
# Procedure, shortened: as §1
# [4] = tested on: H3255
# Procedure, shortened: as §1
# [5] = tested on: NCI-H23
# Procedure, shortened: as §1
# [6] = tested on: NCI-H2087
# Procedure, shortened: as §1
# [7] = tested on: NCI-H1395
# Procedure, shortened: as §1
# [8] = tested on: A-427
# Procedure, shortened: as §1
# [9] = tested on: NCI-H322M
# Procedure, shortened: as §1
# [10] = tested on: LK-2
# Procedure, shortened: as §1
# [11] = tested on: NCI-H1355
# Procedure, shortened: as §1
# [12] = tested on: NCI-H1666
# Procedure, shortened: as §1
# [13] = tested on: NCI-H2228
# Procedure, shortened: as §1
# [14] = tested on: NCI-H1651
# Procedure, shortened: as §1
# [15] = tested on: LCLC-103H
# Procedure, shortened: as §1
# [16] = tested on: NCI-H838
# Procedure, shortened: as §1
# [17] = tested on: ABC-1
# Procedure, shortened: as §1
# [18] = tested on: NCI-H358
# Procedure, shortened: as §1
# [19] = tested on: PC-14
# Procedure, shortened: as §1
# [20] = tested on: NCI-H2085
# Procedure, shortened: as §1
compound,measurement,setting,value
COCC1(CO)C(=O)C2CCN1CC2 (stereo not drawn) [PRIMA-1MET] + Cc1cc(Nc2cc(N3CCN(C)CC3)nc(Sc3ccc(NC(=O)C4CC4)cc3)n2)n[nH]1 [Tozasertib] (partner 0.1 µM),relative viability,[1]; first compound 0.2 µM,0.369
same,relative viability,[1]; first compound 0.6325 µM,0.354
same,relative viability,[1]; first compound 2 µM,0.357
same,relative viability,[1]; first compound 6.325 µM,0.343
same,relative viability,[1]; first compound 20 µM,0.353
same,relative viability,[2]; first compound 0.2 µM,0.215
same,relative viability,[2]; first compound 0.6325 µM,0.183
same,relative viability,[2]; first compound 2 µM,0.195
same,relative viability,[2]; first compound 6.325 µM,0.193
same,relative viability,[2]; first compound 20 µM,0.201
same,relative viability,[3]; first compound 0.2 µM,0.339
same,relative viability,[3]; first compound 0.6325 µM,0.275
same,relative viability,[3]; first compound 2 µM,0.282
same,relative viability,[3]; first compound 6.325 µM,0.326
same,relative viability,[3]; first compound 20 µM,0.263
same,relative viability,[4]; first compound 0.2 µM,0.807
same,relative viability,[4]; first compound 0.6325 µM,0.765
same,relative viability,[4]; first compound 2 µM,0.461
same,relative viability,[4]; first compound 6.325 µM,0.615
same,relative viability,[4]; first compound 20 µM,0.505
same,relative viability,[5]; first compound 0.2 µM,0.507
same,relative viability,[5]; first compound 0.6325 µM,0.312
same,relative viability,[5]; first compound 2 µM,0.371
same,relative viability,[5]; first compound 6.325 µM,0.292
same,relative viability,[5]; first compound 20 µM,0.097
same,relative viability,[6]; first compound 0.2 µM,0.321
same,relative viability,[6]; first compound 0.6325 µM,0.279
same,relative viability,[6]; first compound 2 µM,0.267
same,relative viability,[6]; first compound 6.325 µM,0.271
same,relative viability,[6]; first compound 20 µM,0.126
same,relative viability,[7]; first compound 0.2 µM,0.823
same,relative viability,[7]; first compound 0.6325 µM,0.556
same,relative viability,[7]; first compound 2 µM,0.768
same,relative viability,[7]; first compound 6.325 µM,0.885
same,relative viability,[7]; first compound 20 µM,0.518
same,relative viability,[8]; first compound 0.2 µM,0.163
same,relative viability,[8]; first compound 0.6325 µM,0.201
same,relative viability,[8]; first compound 2 µM,0.203
same,relative viability,[8]; first compound 6.325 µM,0.186
same,relative viability,[8]; first compound 20 µM,0.175
same,relative viability,[9]; first compound 0.2 µM,0.515
same,relative viability,[9]; first compound 0.6325 µM,0.523
same,relative viability,[9]; first compound 6.325 µM,0.504
same,relative viability,[9]; first compound 20 µM,0.286
same,relative viability,[10]; first compound 0.2 µM,0.189
same,relative viability,[10]; first compound 0.6325 µM,0.177
same,relative viability,[10]; first compound 2 µM,0.144
same,relative viability,[10]; first compound 6.325 µM,0.161
same,relative viability,[10]; first compound 20 µM,0.132
same,relative viability,[11]; first compound 0.2 µM,0.581
same,relative viability,[11]; first compound 0.6325 µM,0.568
same,relative viability,[11]; first compound 2 µM,0.564
same,relative viability,[11]; first compound 6.325 µM,0.629
same,relative viability,[11]; first compound 20 µM,0.517
same,relative viability,[12]; first compound 0.2 µM,0.592
same,relative viability,[12]; first compound 0.6325 µM,0.601
same,relative viability,[12]; first compound 2 µM,0.66
same,relative viability,[12]; first compound 6.325 µM,0.554
same,relative viability,[12]; first compound 20 µM,0.388
same,relative viability,[13]; first compound 0.2 µM,0.312
same,relative viability,[13]; first compound 0.6325 µM,0.262
same,relative viability,[13]; first compound 2 µM,0.322
same,relative viability,[13]; first compound 6.325 µM,0.203
same,relative viability,[13]; first compound 20 µM,0.0992
same,relative viability,[14]; first compound 0.2 µM,0.848
same,relative viability,[14]; first compound 0.6325 µM,0.66
same,relative viability,[14]; first compound 2 µM,0.723
same,relative viability,[14]; first compound 6.325 µM,0.712
same,relative viability,[14]; first compound 20 µM,0.649
same,relative viability,[15]; first compound 0.2 µM,0.554
same,relative viability,[15]; first compound 0.6325 µM,0.453
same,relative viability,[15]; first compound 2 µM,0.393
same,relative viability,[15]; first compound 6.325 µM,0.419
same,relative viability,[15]; first compound 20 µM,0.161
same,relative viability,[16]; first compound 0.2 µM,0.291
same,relative viability,[16]; first compound 0.6325 µM,0.286
same,relative viability,[16]; first compound 2 µM,0.245
same,relative viability,[16]; first compound 6.325 µM,0.293
same,relative viability,[16]; first compound 20 µM,0.194
same,relative viability,[17]; first compound 0.2 µM,0.243
same,relative viability,[17]; first compound 0.6325 µM,0.188
same,relative viability,[17]; first compound 2 µM,0.17
same,relative viability,[17]; first compound 6.325 µM,0.145
same,relative viability,[17]; first compound 20 µM,0.259
same,relative viability,[18]; first compound 0.2 µM,0.105
same,relative viability,[18]; first compound 2 µM,0.098
same,relative viability,[18]; first compound 6.325 µM,0.117
same,relative viability,[18]; first compound 20 µM,0.0866
same,relative viability,[19]; first compound 0.2 µM,0.629
same,relative viability,[19]; first compound 0.6325 µM,0.55
same,relative viability,[19]; first compound 2 µM,0.519
same,relative viability,[19]; first compound 6.325 µM,0.714
same,relative viability,[19]; first compound 20 µM,0.386
same,relative viability,[20]; first compound 0.2 µM,0.936
same,relative viability,[20]; first compound 0.6325 µM,0.927
same,relative viability,[20]; first compound 2 µM,0.84
same,relative viability,[20]; first compound 6.325 µM,0.828
same,relative viability,[20]; first compound 20 µM,0.227
